Test results from patent US8114641B2, “Methylbutanol as an advanced biofuel” (Synthetic Genomics, Inc., priority 2007, dated 2012).
Like-named read-outs stand apart in the source and are kept apart here. Blank lines part the entries; values can stand above or below the molecule they belong to.

Tests used:
[1] = 10% blend in gasoline; value based on literature review; cited from earlier work
[2] = 10% blend in gasoline
[3] = Fuel properties of the neat fuel
[4] = Physical properties of alcohol fuels and gasoline; assay type: physicochemical
[5] = based on literature review; cited from earlier work
[6] = Reductase activity of yeast ADH1 on various aldehydes; assay type: biochemical
Description: The ideal ADH for 2-MBO production should be able to reduce branched aldehydes. Therefore, the enzymes ADH1, ADH6, and ADH7 were overexpressed in yeast and were tested for their reductase activity on various aldehydes.

[7] = Keto acid decarboxylase activity on pyruvate, crude extracts; assay type: biochemical; details: crude extract, S. cerevisiae PDC1 deletion host; sigmoidal curves
Description: (§1) The Lactococcus lactis KdcA and S. cerevisiae and P. stipitis PDCs were cloned into yeast expression vector p415 under the control of TEF promoter. The host strain was a PDC1 deletion strain. Crude extracts were prepared for enzymatic assays by incubating cell pellet with CelLytic (Sigma), followed by bead beating. The decarboxylase reaction was performed in 100 mM Citrate Phosphate buffer with 1 mM Thiamine diphosphate, 1 mM MgCl2 and 50 μM to 20 mM aldehyde. The assay was coupled to an alcohol dehydrogenase which enabled continuous monitoring of NADH or NADPH oxidation at 340 nm.
Pyruvate is the target for multiple enzymes and a decarboxylation of the compound can lead to the production of acetaldehyde and subsequently ethanol. To prevent decarboxylation of pyruvate and increase 2-MBO production, a keto acid decarboxylase with a very high Km for pyruvate is ideal. […] The kinetic curves obtained with pyruvate as substrate were sigmoidal. This could be due to the fact that there are multiple enzymes in the crude extract with different Km for pyruvate. The final curve is therefore the superposition of individual curves. Absolute Km values […]. (FIG. 26.)

[8] = Keto acid decarboxylase activity on 2-keto butyrate, NADH dependent coupled assay with yeast ADH1; assay type: biochemical; details: crude extract
Description: as §1
NADH dependent coupled assays with yeast ADH1 were carried out to determine the decarboxylase activity of yeast and heterologous enzymes on the substrate 2 keto butyrate (2KB). 2KB is an intermediate in the production of 2-methylbutanol. A high decarboxylase activity on 2KB can lead to its conversion to propanal and reduce the yield of 2-MBO. […] (See FIG. 25 a-g.) The enzyme with the lowest Km for 2-ketobutyrate is yeast PDC1 and therefore the corresponding gene needs to be deleted in the 2-MBO production strain (data not shown).

[9] = Keto acid decarboxylase activity on 2-keto-3-methylvalerate, PDC/KDC-ADH6 coupled assay with crude extracts; assay type: biochemical; details: crude extract; for Km: enzyme expressed from p415 TEF in S. cerevisiae PDC1 deletion strain, read-out: Km 2 keto 3 methyl valerate
Description: as §1
The substrate specificity of the crude extract overexpressing different PDC/Kdcs was tested with a broad range of aldehydes. This included acetaldehyde, butyraldehyde and 2-methylbutyraldehyde. The concentration of the aldehydes was varied from 50 μM to 20 mM to determine the Km and Vmax values.
2-keto-3-methylvalerate (2K3MV) was tested for decarboxylation and subsequent reduction using PDC/KDC-ADH6 coupled assays.

[10] = S. cerevisiae PDC1 deletion host

- Energy Content [2]: 111,052 BTU/gal
- Pump Octane (R + M)/2 ([2]; RBOB with Pump Octane 80.85 and RVP 7.37): 85.9
- Energy Content [3]: 84,519 BTU/gal
- Reid Vapor Pressure [3]: 2.3 psi
- Pump Octane (R + M)/2 ([3]; extrapolated from tests on blended fuels (blending octanes)): 130.9
- Boiling Point, max [4]: 79 °C
- Flash Point, min [4]: 13 °C
- Freezing Point, max [4]: −114 °C
Molecule: CCO [Ethanol, reference compound]
- Reid Vapor Pressure [1]: ~8.2^A psi
- Fuel Solubility in Water [5]: 100 wt %
- Water Solubility in Fuel [5]: 100 wt %

- fold less active on 2-methyl butaraldehyde than acetaldehyde [6]: ~5000 fold
B1: ADH1: Saccharomyces cerevisiae alcohol dehydrogenase ADH1, SEQ ID NO: 67 (protein, listed as Saccharomyces cerevisiae)
chain: MSIPETQKGVIFYESHGKLEYKDIPVPKPKANELLINVKYSGVCHTDLHAWHGDWPLPVKLPLVGGHEGAGVVVGMGENVKGWKIGDYAGIKWLNGSCMACEYCELGNESNCPHADLSGYTHDGSFQQYATADAVQAAHIPQGTDLAQVAPILCAGITVYKALKSANLMAGHWVAISGAAGGLGSLAVQYAKAMGYRVLGIDGGEGKEELFRSIGGEVFIDFTKEKDIVGAVLKATDGGAHGVINVSVSEAAIEASTRYVRANGTTVLVGMPAGAKCCSDVFNQVVKSISIVGSYVGNRADTREALDFFARGLVKSPIKVVGLSTLPEIYEKMEKGQIVGRYVVDTSK

B2: L. lactis KDCA: Branched-chain alpha-ketoacid decarboxylase [Lactococcus lactis], SEQ ID NO: 61 (protein, listed as Lactococcus lactis)
chain: MYTVGDYLLDRLHELGIEEIFGVPGDYNLQFLDQIISREDMKWIGNANELNASYMADGYARTKKAAAFLTTFGVGELSAINGLAGSYAENLPVVEIVGSPTSKVQNDGKFVHHTLADGDFKHFMKMHEPVTAARTLLTAENATYEIDRVLSQLLKERKPVYINLPVDVAAAKAEKPALSLEKESSTTNTTEQVILSKIEESLKNAQKPVVIAGHEVISFGLEKTVTQFVSETKLPITTLNFGKSAVDESLPSFLGIYNGKLSEISLKNFVESADFILMLGVKLTDSSTGAFTHHLDENKMISLNIDEGIIFNKVVEDFDFRAVVSSLSELKGIEYEGQYIDKQYEEFIPSSAPLSQDRLWQAVESLTQSNETIVAEQGTSFFGASTIFLKSNSRFIGQPLWGSIGYTFPAALGSQIADKESRHLLFIGDGSLQLTVQELGLSIREKLNPICFIINNDGYTVEREIHGPTQSYNDIPMWNYSKLPETFGATEDRVVSKIVRTENEFVSVMKEAQADVNRMYWIELVLEKEDAPKLLKKMGKLFAEQNK
- Vmax Pyruvate [7]: 10069 µM/min/mg
- Vmax 2 keto butyrate [8, 10]: 2053.0 µM/min/mg
- Km ([8]; enzyme expressed from p415 TEF in S. cerevisiae PDC1 deletion strain): 6.05 mM
- Vmax 2 keto 3 methyl valerate [9, 10]: 987.3 µM/min/mg
- Km ([9]; listed as KDCA): 3.7 mM
- Km [9]: 3.75 mM
